In the supplement of paper PMC8612539:
Converted amounts (≈) assume the structure as drawn.

System: Pasteurella multocida
Assay: minimum inhibitory concentration (MIC)
Experimental: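 Broth microdilution MIC (Sensititre BOPO7F bovine plate, CLSI methods) of 19 antimicrobials against field isolates of P. multocida, M. haemolytica, H. somni (deep nasopharyngeal swabs) and E. coli, Enterococcus spp. (rectal swabs) from weaned dairy heifers. Incubation 16-24 h at 35 C. MIC is the lowest concentration preventing visible growth. Values with <= or > lie at the tested range limits. Trimethoprim-sulfamethoxazole is given as the trimethoprim component of a 1:19 mixture.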

Molecule `CCC[C@@H]1C[C@@H](C(=O)N[C@@H]([C@H]2O[C@H](SC)[C@H](O)[C@@H](O)[C@H]2O)[C@H](C)Cl)N(C)C1` [Clindamycin] has a minimum inhibitory concentration (isolate (source animal id): 10) of over 16 µg/mL, a minimum inhibitory concentration (isolate (source animal id): 11) of over 16 µg/mL and a minimum inhibitory concentration (isolate (source animal id): 12) of over 16 µg/mL. It also gave a minimum inhibitory concentration (isolate (source animal id): 19) of over 16 µg/mL, a minimum inhibitory concentration (isolate (source animal id): 23) of over 16 µg/mL and a minimum inhibitory concentration (isolate (source animal id): 26) of over 16 µg/mL. For the same molecule, the minimum inhibitory concentration (isolate (source animal id): 98) was over 16 µg/mL, the minimum inhibitory concentration (isolate (source animal id): 104) was over 16 µg/mL and the minimum inhibitory concentration (isolate (source animal id): 115) was over 16 µg/mL. For the same molecule, the minimum inhibitory concentration (isolate (source animal id): 117) was over 16 µg/mL, the minimum inhibitory concentration (isolate (source animal id): 118) was over 16 µg/mL and the minimum inhibitory concentration (isolate (source animal id): 121) was over 16 µg/mL. The minimum inhibitory concentration (isolate (source animal id): 124) was over 16 µg/mL, the minimum inhibitory concentration (isolate (source animal id): 125) was over 16 µg/mL and the minimum inhibitory concentration (isolate (source animal id): 128) was over 16 µg/mL. The minimum inhibitory concentration (isolate (source animal id): 131) was over 16 µg/mL, the minimum inhibitory concentration (isolate (source animal id): 135) was over 16 µg/mL and the minimum inhibitory concentration (isolate (source animal id): 136) was over 16 µg/mL. The minimum inhibitory concentration (isolate (source animal id): 140) was over 16 µg/mL, the minimum inhibitory concentration (isolate (source animal id): 144) was over 16 µg/mL and the minimum inhibitory concentration (isolate (source animal id): 146) was over 16 µg/mL. For the same molecule, the minimum inhibitory concentration (isolate (source animal id): 150) was over 16 µg/mL, the minimum inhibitory concentration (isolate (source animal id): 151) was over 16 µg/mL and the minimum inhibitory concentration (isolate (source animal id): 153) was over 16 µg/mL. It also gave a minimum inhibitory concentration (isolate (source animal id): 155) of over 16 µg/mL, a minimum inhibitory concentration (isolate (source animal id): 157) of over 16 µg/mL and a minimum inhibitory concentration (isolate (source animal id): 160) of over 16 µg/mL. For the same molecule, the minimum inhibitory concentration (isolate (source animal id): 164) was over 16 µg/mL, the minimum inhibitory concentration (isolate (source animal id): 165) was over 16 µg/mL and the minimum inhibitory concentration (isolate (source animal id): 167) was over 16 µg/mL. The minimum inhibitory concentration (isolate (source animal id): 168) was over 16 µg/mL, the minimum inhibitory concentration (isolate (source animal id): 169) was over 16 µg/mL and the minimum inhibitory concentration (isolate (source animal id): 170) was over 16 µg/mL. For the same molecule, the minimum inhibitory concentration (isolate (source animal id): 171) was over 16 µg/mL, the minimum inhibitory concentration (isolate (source animal id): 172) was over 16 µg/mL and the minimum inhibitory concentration (isolate (source animal id): 173) was over 16 µg/mL. The minimum inhibitory concentration (isolate (source animal id): 174) was over 16 µg/mL, the minimum inhibitory concentration (isolate (source animal id): 175) was over 16 µg/mL and the minimum inhibitory concentration (isolate (source animal id): 176) was over 16 µg/mL. The minimum inhibitory concentration (isolate (source animal id): 177) was over 16 µg/mL, the minimum inhibitory concentration (isolate (source animal id): 178) was over 16 µg/mL and the minimum inhibitory concentration (isolate (source animal id): 179) was over 16 µg/mL. For the same molecule, the minimum inhibitory concentration (isolate (source animal id): 182) was over 16 µg/mL, the minimum inhibitory concentration (isolate (source animal id): 192) was over 16 µg/mL and the minimum inhibitory concentration (isolate (source animal id): 193) was over 16 µg/mL. The minimum inhibitory concentration (isolate (source animal id): 195) was 8 µg/mL (≈ 18.8 µM), the minimum inhibitory concentration (isolate (source animal id): 196) was over 16 µg/mL and the minimum inhibitory concentration (isolate (source animal id): 197) was over 16 µg/mL. The minimum inhibitory concentration (isolate (source animal id): 198) was over 16 µg/mL, the minimum inhibitory concentration (isolate (source animal id): 199) was over 16 µg/mL and the minimum inhibitory concentration (isolate (source animal id): 200) was over 16 µg/mL. It also gave a minimum inhibitory concentration (isolate (source animal id): 201) of over 16 µg/mL, a minimum inhibitory concentration (isolate (source animal id): 203) of over 16 µg/mL and a minimum inhibitory concentration (isolate (source animal id): 204) of over 16 µg/mL. It also gave a minimum inhibitory concentration (isolate (source animal id): 205) of over 16 µg/mL, a minimum inhibitory concentration (isolate (source animal id): 206) of over 16 µg/mL and a minimum inhibitory concentration (isolate (source animal id): 207) of over 16 µg/mL. For the same molecule, the minimum inhibitory concentration (isolate (source animal id): 208) was over 16 µg/mL, the minimum inhibitory concentration (isolate (source animal id): 209) was over 16 µg/mL and the minimum inhibitory concentration (isolate (source animal id): 210) was over 16 µg/mL. The minimum inhibitory concentration (isolate (source animal id): 213) was over 16 µg/mL, the minimum inhibitory concentration (isolate (source animal id): 216) was over 16 µg/mL and the minimum inhibitory concentration (isolate (source animal id): 223) was over 16 µg/mL. The minimum inhibitory concentration (isolate (source animal id): 227) was over 16 µg/mL, the minimum inhibitory concentration (isolate (source animal id): 229) was over 16 µg/mL and the minimum inhibitory concentration (isolate (source animal id): 233) was over 16 µg/mL. The minimum inhibitory concentration (isolate (source animal id): 234) was over 16 µg/mL, the minimum inhibitory concentration (isolate (source animal id): 237) was over 16 µg/mL and the minimum inhibitory concentration (isolate (source animal id): 241) was over 16 µg/mL. It also gave a minimum inhibitory concentration (isolate (source animal id): 245) of over 16 µg/mL, a minimum inhibitory concentration (isolate (source animal id): 247) of over 16 µg/mL and a minimum inhibitory concentration (isolate (source animal id): 250) of over 16 µg/mL. The minimum inhibitory concentration (isolate (source animal id): 254) was over 16 µg/mL, the minimum inhibitory concentration (isolate (source animal id): 255) was over 16 µg/mL and the minimum inhibitory concentration (isolate (source animal id): 258) was over 16 µg/mL. It also gave a minimum inhibitory concentration (isolate (source animal id): 261) of over 16 µg/mL, a minimum inhibitory concentration (isolate (source animal id): 262) of over 16 µg/mL and a minimum inhibitory concentration (isolate (source animal id): 269) of over 16 µg/mL. The minimum inhibitory concentration (isolate (source animal id): 270) was over 16 µg/mL, the minimum inhibitory concentration (isolate (source animal id): 274) was over 16 µg/mL and the minimum inhibitory concentration (isolate (source animal id): 275) was over 16 µg/mL. The minimum inhibitory concentration (isolate (source animal id): 276) was over 16 µg/mL, the minimum inhibitory concentration (isolate (source animal id): 277) was over 16 µg/mL and the minimum inhibitory concentration (isolate (source animal id): 278) was over 16 µg/mL. It also gave a minimum inhibitory concentration (isolate (source animal id): 279) of over 16 µg/mL, a minimum inhibitory concentration (isolate (source animal id): 280) of over 16 µg/mL and a minimum inhibitory concentration (isolate (source animal id): 284) of over 16 µg/mL. It also gave a minimum inhibitory concentration (isolate (source animal id): 285) of over 16 µg/mL, a minimum inhibitory concentration (isolate (source animal id): 287) of over 16 µg/mL and a minimum inhibitory concentration (isolate (source animal id): 290) of over 16 µg/mL. The minimum inhibitory concentration (isolate (source animal id): 294) was over 16 µg/mL, the minimum inhibitory concentration (isolate (source animal id): 295) was over 16 µg/mL and the minimum inhibitory concentration (isolate (source animal id): 296) was over 16 µg/mL. For the same molecule, the minimum inhibitory concentration (isolate (source animal id): 307) was over 16 µg/mL, the minimum inhibitory concentration (isolate (source animal id): 310) was over 16 µg/mL and the minimum inhibitory concentration (isolate (source animal id): 311) was over 16 µg/mL. It also gave a minimum inhibitory concentration (isolate (source animal id): 312) of over 16 µg/mL, a minimum inhibitory concentration (isolate (source animal id): 313) of over 16 µg/mL and a minimum inhibitory concentration (isolate (source animal id): 315) of over 16 µg/mL. For the same molecule, the minimum inhibitory concentration (isolate (source animal id): 316) was over 16 µg/mL.
